Experimental data taken from patent publication US9861601B2 (The Board of Trustees of the Leland Stanford Junior …, priority 2012, dated 2018).
“Also recorded” adds a separate entry of the source.

Legend:
Recombinant human LTA4H = target: T1, Recombinant human LTA4H (Homo sapiens, UniProt P09960); test: In vitro epoxide hydrolase activity assay (LTB4 EIA readout); type: biochemical; conditions: LTA4 substrate 0.13 μM
T1 sequence (P09960 1-611): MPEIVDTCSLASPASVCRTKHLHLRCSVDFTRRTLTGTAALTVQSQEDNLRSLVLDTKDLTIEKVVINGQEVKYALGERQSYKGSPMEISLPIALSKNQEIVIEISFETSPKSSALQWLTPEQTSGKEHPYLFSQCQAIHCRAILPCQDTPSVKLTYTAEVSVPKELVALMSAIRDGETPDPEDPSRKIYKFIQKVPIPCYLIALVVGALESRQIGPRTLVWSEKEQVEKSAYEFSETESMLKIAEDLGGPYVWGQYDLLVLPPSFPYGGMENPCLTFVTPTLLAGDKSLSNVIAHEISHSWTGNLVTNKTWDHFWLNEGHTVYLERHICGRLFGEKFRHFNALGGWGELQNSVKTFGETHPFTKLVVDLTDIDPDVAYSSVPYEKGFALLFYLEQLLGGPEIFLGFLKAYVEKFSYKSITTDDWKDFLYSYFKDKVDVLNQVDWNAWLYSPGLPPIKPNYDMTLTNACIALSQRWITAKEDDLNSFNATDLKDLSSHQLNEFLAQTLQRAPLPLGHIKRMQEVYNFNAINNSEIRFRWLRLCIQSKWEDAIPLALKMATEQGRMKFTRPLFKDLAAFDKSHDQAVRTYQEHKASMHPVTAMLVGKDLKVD
Procedure: The LTA4H inhibitory activity of certain compounds in this invention was measured using an in vitro epoxide hydrolase activity assay. In this assay, an LTA4 substrate was first prepared from the methyl ester of LTA4 (Cayman Chemical), which was treated under nitrogen with […] of NaOH, at room temperature, for 40 min. The LTA4 substrate in its free acid form was kept frozen at −80° C. until use. Recombinant human LTA4H (36 ng) was incubated with various concentrations of test compounds for 10 min. at room temperature in assay buffer (0.1 M potassium phosphate, pH 7.4, 5 mg/ml fatty acid-free bovine serum albumin) in a volume of 200 μl. Then, the mixture was incubated with 25 μl of LTA4 substrate (final concentration, 40 ng/ml, 0.13 μM; final volume, 225 μl) for 30 min. at room temperature. The assay was terminated by diluting 20-fold with assay buffer. LTB4 production from each reaction was then assayed using the LTB4 EIA kit (catalog no. 520111, Cayman Chemical). The concentration of compound required for half-maximal inhibition of recombinant enzyme activity (IC50) was calculated by nonlinear regression using GraphPad Prism 4.0 (GraphPad Software Inc), one-site binding competition.

athymic rat model of PAH = test: SU5416 athymic nude rat model of PAH (PH); type: in vivo; conditions: for reversal of established PH / PH-related death: treatment started 21 days (3 wk) after SU5416, doses as in b355, assessed at wk 5
Procedure: In the model, PH was first initiated by a single injection of a VEGFR2 inhibitor, SU5416, and monitored by weekly echocardiography. Survival of the animals was recorded on daily basis. […] After 5 weeks (day 35), animals were sacrificed after right heart catheterization. […] Oral availability of ubenimex was determined by pharmacokinetic analysis.
The athymic nude rat model is an accepted model of severe PAH associated with immune dysregulation. Athymic nude rats (rnu/rnu) (Charles River Laboratories) were used for these studies. Six to eight week old animals were injected subcutaneously (s.c.) with a single dose of either SU5416 (SU) (10 mg/kg) dissolved in DMSO or DMSO (vehicle) alone. All animals were maintained in normoxic conditions. PH progression was monitored by weekly echocardiography (ECHO). Survival of rats was monitored out to wk 5 when they underwent a terminal right heart catheterization. PH was confirmed by ECHO. Hemodynamic measurements included right ventricular systolic pressure (RVSP) determined by right heart catheterization and right ventricular hypertrophy (RVH) determined by the weight ratio of RV/(LV+S) (right ventricle/(left ventricle+septum)).
All animals were sacrificed 5 wk after SU administration for hemodynamic measurements. […] Serial improvement was observed from the time of treatment initiation. Interval improvement was manifested by decreasing RV wall thickness and increasing pulmonary artery acceleration times (PAAT) after initiation of treatment. […] Here again, the compound of Formula III was notable: treatment with that compound yielded an RVH ratio of 0.29. RVH for healthy rats is generally about 0.25.

[1] = test system: human primary pulmonary arterial smooth muscle cell (hPASMC); test: hPASMC proliferation (MTT) and hypertrophy (protein/DNA ratio) assay; type: cell-based; conditions: 24 hr
Procedure: An in vitro toxicology assay kit (#M-5655, #8910, Sigma) was used to measure the number of viable hPASMC after LTB4 treatment. Briefly, hPASMCs were plated in a 96 well plate one day before treatment. Cells were treated with 200 nM or 400 nM LTB4 for 24 hr. On the day of assay, growing medium was first removed from the cells, then 20 μL of 12 mM MTT ((3-(4,5-Dimethylthiazol-2-yl)-2,5-diphenyltetrazolium bromide, a yellow tetrazole)) stock solution were then added to each well. After incubation at 37 degrees C. for 4 hr, 200 μL MTT dissolution solution (10% Triton X-100 plus 0.1 N HCl in anhydrous isopropanol) were added to each well. Relative optical density, which was used as a parameter for proliferation, was calculated by subtracting the absorbance at 690 nm from that at 570 nm. Cellular hypertrophy was determined by protein/DNA ratio. hPASMCs were seeded on 6 well plates. Cells were treated with 200 nM or 400 nM LTB4 for 24 hr. hPASMCs were then collected and divided into to two. For one part of each sample, a BCA protein assay kit (#23227, Thermo Scientific) was used to determined the total protein amount. DNA was purified from the other part of the sample using a Miniprep kit (QIAGEN). DNA concentration was then measured by nanodrop.

[2] = test system: Rat pulmonary arterial endothelial cells (PAECs); test: PAEC apoptosis assay (Annexin V flow cytometry, with or without macrophage co-culture); type: cell-based; conditions: for PAEC apoptosis induced by exogenous leukotriene (no macrophages): 24 hrs
Procedure: The transwell assay involved co-culturing IMØs from several sources with PAECs. IMØs, from (A) DMSO and (B) SU rat lungs, were isolated and co-cultured with PAECs. After 24 hr, PAEC apoptosis was analyzed by flow cytometry for Annexin V expression. To isolate the specific impact of LTB4 generated by 5-LO activation further, IMØs were extracted from healthy rats and transfected with S271E to produce a phosphorylation mimic mutant or with S271A to produce a dephosphorylation mimic mutant. Vector and WT 5-LO DNA-transfected IMØs were used as controls. Flow cytometry was performed on PAECs co-cultured with IMØs extracted from healthy rats and transfected with (C) vector as control, (D) WT 5-LO, (E) S271A, (F) S271E (G) S271E mutant treated with n-acetyl cysteine (NAC) (200 nM) or (H) S271A mutant treated with LTB4 (100 nM). PAECs were treated with (I) exogenous LTB4 (200 nM) or (J) LTB4 (200 nM) with a BLT1 inhibitor U75302 […] (n=3 experiments per group). Representative flow cytometry plots are shown, n=3 experiments per group.
The results reported in this example were obtained using the following PAEC apoptosis assay. Rat pulmonary arterial endothelial cells (PAECs) were co-cultured with macrophages (+/− transfection) for 24 hr. They were then washed once with PBS and once with binding buffer from the Annexin V Apoptosis Detection Kit (88-8007; eBioscience). Cells were then suspended in binding buffer at 1-5×10^6/ml. 5 μl of APC conjugated Annexin V was added to 100 μl of cells, which were then incubated at room temperature for 15 min. Five μl of propidium iodide staining solution were added 5 min. prior to flow cytometry analysis on an LSRFortessa cell analyzer (BD Biosciences).

[3] = patients with PAH; cited from earlier work

**Q.** With CC(=O)N[C@H](Cc1ccc(O)cc1)[C@H](OC(C)=O)C(=O)N[C@@H](CC(C)C)C(=O)O as the compound, how does the IC50 (Recombinant human LTA4H) read?
**A.** 43 ± 11 nM

**Q.** With CC(=O)N[C@H](Cc1ccc(O)cc1)[C@H](O)C(=O)N[C@@H](CC(C)C)C(=O)O as the compound, how does the IC50 (Recombinant human LTA4H) read?
**A.** 13 ± 4 nM

**Q.** With CC(C)C[C@H](NC(=O)[C@@H](O)[C@H](N)Cc1ccc(Oc2nc3ccccc3s2)cc1)C(=O)O [Formula III, (S)-2-((2S,3R)-3-amino-4-(4-(benzo[d]thiazol-2-yloxy)phenyl)-2-hydroxybutanamido)-4-methylpentanoic acid] as the compound, how does the RVSP (athymic rat model of PAH; 1 mg/kg p.o. daily, sacrificed 5 wk after SU) read?
**A.** 28 mm Hg

**Q.** What about the RVH ratio (athymic rat model of PAH; 1 mg/kg p.o. daily, sacrificed 5 wk after SU, RV/(LV+S)) of the same compound?
**A.** 0.29

**Q.** And the IC50 (Recombinant human LTA4H)?
**A.** 10 ± 5 nM

**Q.** For O=C(O)C1CCN(Cc2ccc(Oc3nc4ccccc4s3)cc2)CC1 [JNJ26993135, 1-[4-(benzothiazol-2-yloxy)-benzyl]-piperidine-4-carboxylic acid], which “accumulation of 5-LO expressing periarteriolar macrophages and B cells in lungs” value (athymic rat model of PAH; SU-treated athymic rats) is on record?
**A.** significantly reduced

**Q.** And the “in vivo PAEC apoptosis” value (athymic rat model of PAH; SU-treated athymic rats)?
**A.** reduced

**Q.** What about the “reversal of established PH / PH-related death” value (athymic rat model of PAH) of the same compound?
**A.** efficacious in reversing severe PH and preventing PH-related death; also recorded: reverses established PH

**Q.** For CCCCC/C=C\C[C@@H](O)/C=C/C=C/C=C\[C@@H](O)CCCC(=O)O [LTB4, leukotriene B4], which “cellular hypertrophy (protein/DNA ratio)” value ([1]; 200 nM or 400 nM) is on record?
**A.** increased in a similar pattern

**Q.** What about the “number of PASMC versus negative control group” value ([1]; 200 nM) of the same compound?
**A.** 1.8 fold

**Q.** What about the “number of PASMC versus negative control group” value ([1]; 400 nM) of the same compound?
**A.** two fold more

**Q.** What about the “PAEC apoptosis induced by exogenous leukotriene (no macrophages)” value (“PAEC apoptosis induced … (no macrophages)” for short) [2] of the same compound?
**A.** significant apoptosis

**Q.** What about the “PAEC apoptosis in co-culture with S271A transfected macrophages” value ([2]; exogenous LTB4 (100 nM)) of the same compound?
**A.** caused apoptosis

**Q.** With CCCCC/C=C\C\C=C/C=C/C=C/[C@@H](SC[C@H](NC(=O)CC[C@H](N)C(=O)O)C(=O)NCC(=O)O)[C@@H](O)CCCC(=O)O [LTC4, leukotriene C4] as the compound, how does the “PAEC apoptosis induced … (no macrophages)” value [2] read?
**A.** did not induce PAEC apoptosis

**Q.** For CCCCC/C=C\C\C=C/C=C/C=C/[C@@H](SC[C@H](N)C(=O)NCC(=O)O)[C@@H](O)CCCC(=O)O [LTD4, leukotriene D4], which “PAEC apoptosis induced … (no macrophages)” value [2] is on record?
**A.** did not induce PAEC apoptosis

**Q.** With CCCCC/C=C\C\C=C/C=C/C=C/[C@@H](SC[C@H](N)C(=O)O)[C@@H](O)CCCC(=O)O [LTE4, leukotriene E4] as the compound, how does the “PAEC apoptosis induced … (no macrophages)” value [2] read?
**A.** did not induce PAEC apoptosis

**Q.** For CCCCCCCCCCCCC/C=C/[C@@H](O)[C@@H](N)COP(=O)(O)O [SIP, sphingosine-1-phosphate], which “rescue of PAECs co-cultured with S271E cells” value ([2]; exogenously added) is on record?
**A.** able to rescue

**Q.** With CN1CC(=O)N2[C@H](c3ccc4c(c3)OCO4)c3[nH]c4ccccc4c3C[C@@H]2C1=O [Tadalafil] as the compound, how does the half-life [3] read?
**A.** 35 h

**Q.** Which “LTB4-mediated PAEC apoptosis” value ([2]; LTB4 (200 nM) with U75302, 24 hr) does the source give for CCCCC/C=C\C[C@@H](O)/C=C/c1cccc(C[C@@H](O)CCCCO)n1 [U75302] here?
**A.** prevented LTB4-mediated apoptosis

**Q.** Which “reversal of established PH / PH-related death” value (athymic rat model of PAH) does the source give for CC(=O)Oc1ccccc1C(=O)O [aspirin] here?
**A.** relatively less therapeutic

**Q.** Which IC50 (Recombinant human LTA4H) does the source give for COC(=O)[C@H](CC(C)C)NC(=O)[C@@H](OC(C)=O)[C@@H](Cc1ccc(Br)cc1)NC(C)=O [di-acyl ubenimex bromide, (S)-methyl 2-((2S,3R)-3-acetamido-2-acetoxy-4-(4-bromophenyl)butanamido)-4-methylpentanoate] here?
**A.** 40 ± 22 nM

**Q.** Which IC50 (Recombinant human LTA4H) does the source give for COC(=O)[C@H](CC(C)C)NC(=O)[C@@H](OC(C)=O)[C@@H](Cc1ccccc1)NC(C)=O [di-acyl ubenimex, (S)-methyl 2-((2S,3R)-3-acetamido-2-acetoxy-4-phenylbutanamido)-4-methylpentanoate] here?
**A.** 25 ± 18 nM

**Q.** With O=C(NC1CCCCC1)NC1CCCCC1 [dicyclohexyl urea] as the compound, how does the “reversal of established PH / PH-related death” value (athymic rat model of PAH) read?
**A.** relatively less therapeutic

**Q.** With COC(=O)[C@H](CC(C)C)NC(=O)[C@@H](O)[C@@H](Cc1ccccc1)NC(C)=O [mono-acryl ubenimex, (S)-methyl 2-((2S,3R)-3-acetamido-2-hydroxy-4-phenylbutanamido)-4-methylpentanoate] as the compound, how does the IC50 (Recombinant human LTA4H) read?
**A.** 94 ± 21 nM

**Q.** Which IC50 (Recombinant human LTA4H) does the source give for COC(=O)[C@H](CC(C)C)NC(=O)[C@@H](O)[C@@H](Cc1ccc(Br)cc1)NC(C)=O [mono-acyl ubenimex bromide, (S)-methyl 2-((2S,3R)-3-acetamido-4-(4-bromophenyl)-2-hydroxybutanamido)-4-methylpentanoate] here?
**A.** 93 ± 16 nM

**Q.** For CC(=O)N[C@@H](CS)C(=O)O [n-acetyl cysteine], which “PAEC apoptosis in co-culture with S271E mutant macrophages” value ([2]; NAC (200 nM)) is on record?
**A.** no diminution of apoptosis

**Q.** With Oc1ccc(C=Cc2cc(O)cc(O)c2)cc1 [resveratrol] as the compound, how does the “reversal of established PH / PH-related death” value (athymic rat model of PAH) read?
**A.** did not attenuate PH or improve survival

**Q.** With COC(=O)[C@H](CC(C)C)NC(=O)[C@@H](O)[C@H](N)Cc1ccccc1 [ubenimex methy ester, (S)-methyl 2-((2S,3R)-3-amino-2-hydroxy-4-phenylbutanamido)-4-methylpentanoate] as the compound, how does the IC50 (Recombinant human LTA4H) read?
**A.** 54 ± 13 nM

**Q.** Which “reversal of established PH / PH-related death” value (athymic rat model of PAH) does the source give for CC(c1cc2ccccc2s1)N(O)C(N)=O (centres unmarked) [zileuton, 1-[1-(1-benzothiophen-2-yl)ethyl]-1-hydroxyurea] here?
**A.** mildly attenuated pressures and prevented death
